The text below walks through data of PMC9033141, “Beta and Gamma Amino Acid-Substituted Benzenesulfonamides as Inhibitors of Human Carbonic Anhydrases” (Pharmaceuticals, 2022).

The term melting point denotes the temperature, or range, at which the solid turns liquid.

Read-outs that look alike come from different tables or passages of the source.

The target of one data set is T1, CAI (Homo sapiens, UniProt P00915).
T1 construct: made in house; host or cells: E. coli
The data set is described as follows: biochemical. The data set is classed as binding. Particulars: FTSA, pH 7.0, 37 °C; read-out: Observed Dissociation Constant (Kd_obs), CAI.

A further data set deals with T2, CAIX (Homo sapiens, UniProt Q16790).
T2 construct: made in house
The data set is described as follows: biochemical. The data set is classed as binding. Particulars: FTSA, pH 7.0, 37 °C.

A further data set has as its target CAXIII (Homo sapiens, UniProt Q8N1Q1). The data set is described as follows: biochemical. Particulars: Observed Dissociation Constant (Kd_obs), FTSA, pH 7.0, 37 °C.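 Also: recombinant human CAXIII melting temperature tracked by ANS fluorescence in thermal shift assay, Tm fitted against ligand concentration, intrinsic value corrects Kd for deprotonated sulfonamide and Zn-bound water fractions.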
The next data set deals with T3, CAXII (Homo sapiens, UniProt O43570).
T3 construct: made in house; host or cells: E. coli
T3 sequence (O43570 25-354): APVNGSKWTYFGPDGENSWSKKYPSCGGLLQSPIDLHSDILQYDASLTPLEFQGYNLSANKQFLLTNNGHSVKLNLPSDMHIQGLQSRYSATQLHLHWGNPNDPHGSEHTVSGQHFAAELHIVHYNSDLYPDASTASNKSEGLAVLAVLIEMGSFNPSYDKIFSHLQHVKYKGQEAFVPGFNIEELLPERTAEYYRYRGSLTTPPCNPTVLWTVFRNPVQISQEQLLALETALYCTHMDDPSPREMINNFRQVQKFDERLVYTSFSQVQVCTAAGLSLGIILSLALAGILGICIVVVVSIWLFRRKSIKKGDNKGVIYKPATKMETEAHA
Briefly: biochemical. Particulars: FTSA, pH 7.0, 37 °C; read-out: Observed Dissociation Constant (Kd_obs), CAXII. The data set is classed as binding.

A further data set concerns the target T4, CAII (Homo sapiens, UniProt P00918).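 Also: recombinant human CAII, thermal shift with ANS dye fluorescence, Kd_obs from fitting melting temperature versus ligand concentration, intrinsic values corrected for deprotonated sulfonamide and Zn-bound water fractions.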
T4 construct: made in house; host or cells: E. coli
Briefly: biochemical. Format: binding. Particulars: FTSA, pH 7.0, 37 °C; read-out: Observed Dissociation Constant (Kd_obs), CAII.

Where [1] appears, read: read-out: Observed Dissociation Constant (Kd_obs), CAIX.
The mark [2] stands for this setting: Observed Dissociation Constant (Kd_obs), CAIX.
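For Observed Dissociation Constant (Kd obs), CAXII in this document: recombinant CAXII made in E. coli, ANS-fluorescence thermal shift with affinity fitted from Tm versus ligand concentration, intrinsic energy from Kd_obs corrected for deprotonated sulfonamide and Zn-water fractions.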

T1 sequence (P00915 whole entry): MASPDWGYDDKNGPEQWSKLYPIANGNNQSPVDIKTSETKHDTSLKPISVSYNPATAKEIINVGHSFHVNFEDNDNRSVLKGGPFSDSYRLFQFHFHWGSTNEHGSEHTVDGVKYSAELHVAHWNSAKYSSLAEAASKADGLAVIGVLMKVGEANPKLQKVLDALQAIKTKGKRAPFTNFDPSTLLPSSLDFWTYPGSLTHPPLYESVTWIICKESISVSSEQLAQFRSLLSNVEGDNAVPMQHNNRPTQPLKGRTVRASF
CAXIII, sequence (Q8N1Q1 whole entry): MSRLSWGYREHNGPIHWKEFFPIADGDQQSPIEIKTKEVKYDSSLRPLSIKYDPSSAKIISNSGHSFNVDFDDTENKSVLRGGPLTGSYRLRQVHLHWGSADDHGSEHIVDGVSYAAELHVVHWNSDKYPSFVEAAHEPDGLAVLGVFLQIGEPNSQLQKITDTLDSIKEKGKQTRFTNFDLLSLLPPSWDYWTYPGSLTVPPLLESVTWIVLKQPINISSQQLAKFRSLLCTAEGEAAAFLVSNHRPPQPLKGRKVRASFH
Method for CAIX: Human CA isozymes were expressed in E. coli (CAI, II, III, IV, VA, VB, VII, XII, XIII, XIV) or mammalian cells (CAVI and CAIX), chromatographically purified following the published protocols [47], and stored at −80 °C. The protein concentration was determined by UV absorption at 280 nm using Beer–Lambert law.
The QIAGEN Rotor-Gene Q was used to carry out the experiments, with a blue channel used for excitation (365 nm) and detection (460 nm). FTSA in this case relies on an extrinsic probe, 8-anilino-1-naphthalenesulfonate (ANS), to detect the fluorescence increase during protein denaturation, from which protein melting temperature (Tm) can be determined. […] The observed affinity of ligands for CAs was determined by plotting the Tm as a function of ligand concentration and then fitting a curve as described previously [48]. […] Samples were heated from 25 °C to 99 °C at the speed of 1 °C/min.
The intrinsic thermodynamic parameters were calculated as described in [40]. The intrinsic reaction of inhibitor binding to CA is shown in Equation (1).
When calculating Kd_int values, these protein and ligand fractions from Equation (1) have to be accounted for (Equations (2) and (3)). The intrinsic dissociation constant is calculated by multiplying Kd_obs value by the corresponding fractions of protein and ligand (Equation (4)). (2) fRSO2NH^−=10^pH−pKa_RSO2NH2/1+10^pH−pKa_RSO2NH2 (3) fCAZnH2O=1−10^pH−pKa_CAZnH2O/1+10^pH−pKa_CAZnH2O (4) Kd_int=Kd_obs×fRSO2NH^−×fCAZnH2O (5) ΔGint0=RTlnKd_int
The intrinsic standard Gibbs energy changes upon binding were calculated using Equation (5). Here, R—universal ideal gas constant (8.3144 J/mol·K), T—absolute temperature (310.15 K).

With `NS(=O)(=O)c1ccc(NCC(CC(=O)NN=Cc2cccc(Cl)c2)C(=O)NN=Cc2cccc(Cl)c2)c(Cl)c1` (stereo not drawn) [Compound 11b, 3-Chloro-4-((2-(2-(3-chlorobenzylidene)hydrazine-1-carbonyl)-4-(2-(3-chlorobenzylidene)hydrazineyl)-4-oxobutyl)amino)benzenesulfonamide], the melting point lay in the range of 175 to 176 °C. Also, the Kd at CAI turned out to be 2.5 µM. Besides, on CAIX (setting [1]), the Kd came out at 130 nM. The Kd on CAXIII is 0.33 µM. In addition, at CAXII, the Kd was determined as 33 µM. Also, on CAII, the Kd was 330 nM.

Consider `NS(=O)(=O)c1ccc(NCC(CC(=O)NN=Cc2ccc(Cl)cc2)C(=O)NN=Cc2ccc(Cl)cc2)cc1` (stereo not drawn) [Compound 12a, 4-((2-(2-(4-Chlorobenzylidene)hydrazine-1-carbonyl)-4-(2-(4-chlorobenzylidene)hydrazineyl)-4-oxobutyl)amino)benzenesulfonamide], for which the melting point lay in the range of 179 to 180 °C. For the same compound, at CAI, the Kd is 36 µM. The Kd at CAIX (setting [1]) was determined as 1000 nM. Besides, the Kd on CAXIII was 17 µM. Also, the Kd at CAXII turned out to be 66 µM. Besides, the Kd on CAII stood at 5000 nM.

`NS(=O)(=O)c1ccc(NCC(CC(=O)NN=Cc2ccc(Cl)cc2)C(=O)NN=Cc2ccc(Cl)cc2)c(Cl)c1` (stereo not drawn) [Compound 12b, 3-Chloro-4-((2-(2-(4-chlorobenzylidene)hydrazine-1-carbonyl)-4-(2-(4-chlorobenzylidene)hydrazineyl)-4-oxobutyl)amino)benzenesulfonamide] registered a melting point of 211 to 212 °C. Besides, the Kd on CAI was 6.7 µM. On CAIX (setting [1]), the Kd came out at 670 nM. This compound had a Kd at CAXIII of 1.5 µM. On CAXII, the Kd came out at 57 µM. For the same compound, the Kd on CAII came to 1100 nM.

With `NS(=O)(=O)c1ccc(NCC(CC(=O)NN=Cc2ccc(F)cc2)C(=O)NN=Cc2ccc(F)cc2)cc1` (stereo not drawn) [Compound 13a, 4-((2-(2-(4-Fluorobenzylidene)hydrazine-1-carbonyl)-4-(2-(4-fluorobenzylidene)hydrazineyl)-4-oxobutyl)amino)benzenesulfonamide], the melting point was in the range of 153 to 154 °C. The Kd at CAI came to 22 µM. In addition, the Kd on CAIX (setting [1]) was 1400 nM. The Kd on CAXIII amounted to 20 µM. Besides, the Kd at CAXII stood at 23 µM. Moreover, the Kd on CAII was 2900 nM.

For the compound `NS(=O)(=O)c1ccc(NCC(CC(=O)NN=Cc2ccc(F)cc2)C(=O)NN=Cc2ccc(F)cc2)c(Cl)c1` (stereo not drawn) [Compound 13b, 3-Chloro-4-((2-(2-(4-fluorobenzylidene)hydrazine-1-carbonyl)-4-(2-(4-fluorobenzylidene)hydrazineyl)-4-oxobutyl)amino)benzenesulfonamide], the melting point was in the range of 207 to 208 °C. Further, the Kd on CAI amounted to 2.6 µM. In addition, the Kd on CAIX (setting [2]) worked out at 330 nM. Moreover, the Kd on CAXIII came out at 0.34 µM. Further, the Kd on CAXII is 23 µM. In addition, on CAII, the Kd is 390 nM.

The compound `COc1ccc(C=NNC(=O)CC(CNc2ccc(S(N)(=O)=O)cc2)C(=O)NN=Cc2ccc(OC)cc2)cc1` (stereo not drawn) [Compound 14a, 4-((2-(2-(4-Methoxybenzylidene)hydrazine-1-carbonyl)-4-(2-(4-methoxybenzylidene)hydrazineyl)-4-oxobutyl)amino)benzenesulfonamide] came in with a melting point of 168 to 169 °C. Further, the Kd on CAI is 32 µM. The Kd at CAIX (setting [1]) came out at 1400 nM. At CAXIII, this compound displayed a Kd of 23 µM. For the same compound, on CAXII, the Kd stood at 38 µM. For the same compound, on CAII, the Kd amounted to 3400 nM.

`COc1ccc(C=NNC(=O)CC(CNc2ccc(S(N)(=O)=O)cc2Cl)C(=O)NN=Cc2ccc(OC)cc2)cc1` (stereo not drawn) [Compound 14b, 3-Chloro-4-((2-(2-(4-methoxybenzylidene)hydrazine-1-carbonyl)-4-(2-(4-methoxybenzylidene)hydrazineyl)-4-oxobutyl)amino)benzenesulfonamide]: the melting point is 198 to 199 °C. For the same compound, at CAI, the Kd was determined as 0.51 µM. In addition, the Kd at CAIX (setting [1]) stood at 290 nM. This compound also registered a Kd on CAXIII of 0.066 µM. On CAXII, the Kd turned out to be 10 µM. Also, the Kd at CAII was 59 nM.

`NS(=O)(=O)c1ccc(NCC(CC(=O)NN=Cc2ccccc2[N+](=O)[O-])C(=O)NN=Cc2ccccc2[N+](=O)[O-])cc1` (stereo not drawn) [Compound 15a, 4-((2-(2-(2-Nitrobenzylidene)hydrazine-1-carbonyl)-4-(2-(2-nitrobenzylidene)hydrazineyl)-4-oxobutyl)amino)benzenesulfonamide] registered a melting point of 197 to 198 °C. Besides, on CAI, the Kd is 13 µM. In addition, at CAIX (setting [1]), the Kd stood at 1000 nM. Moreover, the Kd at CAXIII came out at 6.7 µM. Besides, the Kd at CAXII came out at 50 µM. The Kd on CAII was found to be 3300 nM.

As for `NS(=O)(=O)c1ccc(NCC(CC(=O)NN=Cc2ccccc2[N+](=O)[O-])C(=O)NN=Cc2ccccc2[N+](=O)[O-])c(Cl)c1` (stereo not drawn) [Compound 15b, 3-Chloro-4-((2-(2-(2-nitrobenzylidene)hydrazine-1-carbonyl)-4-(2-(2-nitrobenzylidene)hydrazineyl)-4-oxobutyl)amino)benzenesulfonamide], the melting point lay within 178 to 179 °C. The Kd at CAI is 2.5 µM. In addition, the Kd on CAIX (setting [1]) worked out at 140 nM. This compound displayed a Kd on CAXIII of 0.4 µM. Besides, the Kd at CAXII stood at 50 µM. For the same compound, on CAII, the Kd came to 500 nM.

Take `NS(=O)(=O)c1ccc(NCC(CC(=O)NN=Cc2cccc([N+](=O)[O-])c2)C(=O)NN=Cc2cccc([N+](=O)[O-])c2)cc1` (stereo not drawn) [Compound 16a, 4-((2-(2-(3-Nitrobenzylidene)hydrazine-1-carbonyl)-4-(2-(3-nitrobenzylidene)hydrazineyl)-4-oxobutyl)amino)benzenesulfonamide]: the melting point lay within 218 to 219 °C. Further, the Kd on CAI is 20 µM. In addition, on CAIX (setting [1]), the Kd is 1400 nM. The compound also showed a Kd on CAXIII of 14 µM. Moreover, the Kd on CAXII amounted to 50 µM. In addition, the Kd on CAII turned out to be 4000 nM.

Regarding `NS(=O)(=O)c1ccc(NCC(CC(=O)NN=Cc2cccc([N+](=O)[O-])c2)C(=O)NN=Cc2cccc([N+](=O)[O-])c2)c(Cl)c1` (stereo not drawn) [Compound 16b, 3-Chloro-4-((2-(2-(3-nitrobenzylidene)hydrazine-1-carbonyl)-4-(2-(3-nitrobenzylidene)hydrazineyl)-4-oxobutyl)amino)benzenesulfonamide], the melting point was in the range of 199 to 200 °C. Besides, at CAI, the Kd came out at 3.3 µM. Further, the Kd on CAIX (setting [1]) is 130 nM. This compound gave a Kd at CAXIII of 1 µM. Also, on CAXII, the Kd was determined as 130 µM. The Kd at CAII came to 500 nM.

For the compound `NS(=O)(=O)c1ccc(NCC(CC(=O)NN=Cc2ccc([N+](=O)[O-])cc2)C(=O)NN=Cc2ccc([N+](=O)[O-])cc2)cc1` (stereo not drawn) [Compound 17a, 4-((2-(2-(4-Nitrobenzylidene)hydrazine-1-carbonyl)-4-(2-(4-nitrobenzylidene)hydrazineyl)-4-oxobutyl)amino)benzenesulfonamide], the melting point was 256 to 257 °C. Besides, the Kd on CAI was found to be 36 µM. Moreover, the Kd on CAIX (setting [1]) turned out to be 3300 nM. The Kd on CAXIII stood at 19 µM. Further, the Kd at CAXII is 79 µM. In addition, on CAII, the Kd is 5400 nM.

On to `NS(=O)(=O)c1ccc(NCC(CC(=O)NN=Cc2ccc([N+](=O)[O-])cc2)C(=O)NN=Cc2ccc([N+](=O)[O-])cc2)c(Cl)c1` (stereo not drawn) [Compound 17b, 3-Chloro-4-((2-(2-(4-nitrobenzylidene)hydrazine-1-carbonyl)-4-(2-(4-nitrobenzylidene)hydrazineyl)-4-oxobutyl)amino)benzenesulfonamide], for which the melting point was in the range of 220 to 221 °C. On CAI, the Kd was found to be 2.6 µM. Further, the Kd at CAIX (setting [2]) was 1400 nM. The Kd on CAXIII turned out to be 1.4 µM. Moreover, the Kd on CAXII was found to be 58 µM. In addition, the Kd on CAII amounted to 570 nM.

For the compound `Cc1ccc(C)n1NC(=O)CC(CNc1ccc(S(N)(=O)=O)cc1)C(=O)Nn1c(C)ccc1C` (stereo not drawn) [Compound 19a, N^1,N^4-bis(2,5-Dimethyl-1H-pyrrol-1-yl)-2-(((4-sulfamoylphenyl)amino)methyl)succinamide], the melting point fell in the range of 195 to 196 °C. Moreover, at CAI, the Kd is 10 µM. Further, the Kd on CAIX (setting [1]) was 560 nM. Moreover, the Kd on CAXIII was 4 µM. Further, the Kd on CAXII came to 10 µM. Also, the Kd at CAII was 1700 nM.

In the case of `NS(=O)(=O)c1ccc(NCC(CC(=O)NNC(=S)Nc2ccccc2)C(=O)NNC(=S)Nc2ccccc2)cc1` (stereo not drawn) [Compound 23a, 2,2′-(2-(((4-Sulfamoylphenyl)amino)methyl)succinyl)bis(N-phenylhydrazine-1-carbothioamide)], the melting point was 136 to 137 °C. Also, at CAI, the Kd was 4 µM. In addition, the Kd at CAIX (setting [1]) came out at 130 nM. This compound also came in with a Kd on CAXIII of 10 µM. Moreover, the Kd at CAXII was found to be 2.2 µM. Moreover, the Kd at CAII is 2000 nM.

`Cn1c(CC(CNc2ccc(S(N)(=O)=O)cc2)c2n[nH]c(=S)n2C)n[nH]c1=S` (stereo not drawn) [Compound 24a, 4-((2,3-bis(4-Methyl-5-thioxo-4,5-dihydro-1H-1,2,4-triazol-3-yl)propyl)amino)benzenesulfonamide] gave a melting point of 170 to 171 °C. Also, the Kd on CAI came to 43 µM. The Kd on CAIX (setting [1]) is 910 nM. For the same compound, the Kd at CAXIII is 19 µM. In addition, on CAXII, the Kd is 3.3 µM. The Kd at CAII turned out to be 6700 nM.

With `Cn1c(CC(CNc2ccc(S(N)(=O)=O)cc2Cl)c2n[nH]c(=S)n2C)n[nH]c1=S` (stereo not drawn) [Compound 24b, 4-((2,3-bis(4-Methyl-5-thioxo-4,5-dihydro-1H-1,2,4-triazol-3-yl)propyl)amino)-3-chlorobenzenesulfonamide], the melting point was 151 to 152 °C. Also, the Kd on CAI is 2.9 µM. In addition, the Kd at CAIX (setting [1]) came to 59 nM. In addition, the Kd on CAXIII stood at 1.3 µM. On CAXII, the Kd amounted to 1.7 µM. Besides, the Kd on CAII was 250 nM.
